For series [1], the target named is T1, CYP enzymes involved in melatonin 6-hydroxylation (Canis lupus familiaris, UniProt P56592).
T1 sequence (P56592 2-512): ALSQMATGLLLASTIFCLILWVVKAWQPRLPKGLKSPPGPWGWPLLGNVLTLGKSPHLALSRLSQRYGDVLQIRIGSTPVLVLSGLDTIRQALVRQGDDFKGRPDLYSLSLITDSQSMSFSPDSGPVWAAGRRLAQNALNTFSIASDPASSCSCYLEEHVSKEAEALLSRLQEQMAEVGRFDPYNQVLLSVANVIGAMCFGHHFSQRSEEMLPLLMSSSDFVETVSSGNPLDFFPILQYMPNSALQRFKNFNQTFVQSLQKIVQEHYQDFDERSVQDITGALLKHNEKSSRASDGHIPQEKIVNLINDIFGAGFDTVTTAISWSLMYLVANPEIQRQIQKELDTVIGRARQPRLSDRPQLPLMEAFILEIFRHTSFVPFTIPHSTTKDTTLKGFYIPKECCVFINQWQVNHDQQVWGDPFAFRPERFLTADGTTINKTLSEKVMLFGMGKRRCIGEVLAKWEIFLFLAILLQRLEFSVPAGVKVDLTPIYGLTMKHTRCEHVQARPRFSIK
Description: Competitive inhibition of CBD on MT 6-hydroxylation, beagle liver microsomes. In kind it is in vitro ADME. Conditions: dog, probe melatonin (MT) 1 μM, 6-hydroxylation to 6-HMT. The procedure: The final incubation system contained 100 mM PBS, 5 mM MgCl2, 0.5 mg/mL liver microsomal protein, and 1 mM NADPH. […] The final concentration of MT was 1 μM.
A general note: Microsomes from liver hold many membrane-bound enzymes, among them those of drug oxidation.

Series [2] has as its system liver microsomes from different species. Description: Effect of MT on in vitro metabolism of CBD in liver microsomes. In kind it is in vitro ADME, human, rat, beagle. The conditions noted are these: CBD 1 μM, MT up to 32 μM. How it is done: The reaction was initiated by adding pre-incubated NADPH. The system contained liver microsomes at 0.5 mg/mL and NADPH at 1 mM (both diluted in PBS containing MgCl2). […] All samples were prepared in triplicate. The content of CBD was determined by LC-MS/MS.

The test system of series [3] is CYP1A2-mediated metabolism of MT. Kind of series: Static DDI model prediction of CBD's impact on MT exposure, human. The conditions noted are these: input of static DDI model. From the text:
(AUC when co-administered with the inhibitor) to AUC[contr] (AUC without the inhibitor).

As to `C=C(C)[C@@H]1CCC(C)=C[C@H]1c1c(O)cc(CCCCC)cc1O` [CBD, Cannabidiol], the IC50 at 30 min in series [1] (IC50, beagle, as listed in Table 6 for static DDI model) was 650 nM; in series [1] (IC50, inhibition of MT 6-hydroxylation, DLM, MT 1 μM), 3420 ± 1300 nM.
For `COc1ccc2[nH]cc(CCNC(C)=O)c2c1` [MT, Melatonin], the “competitive inhibition of CBD metabolism by MT” value in series [2] is “does not exert competitive inhibition on CBD”. Besides, in series [3], the “fm(CYP1A2), proportion of MT metabolized by CYP1A2” value is reported as 0.92.

Usually IC50 stands for the concentration that inhibits the measured activity by half.
